Laboratory results taken from patent US4593093A, “Acyl derivatives” (priority 1980, dated 1986).
Structures can show the parent of a compound that is named as a salt. Where two headings read alike, the source gives them in different places.

Legend:
Streptococcus pneumoniae = assay: Activity in vitro: minimum inhibitory concentration; assay type: cell-based
Proteus morganii = assay: as above; assay type: cell-based; conditions: Morganella morganii
Haemophilus influenzae = assay: Activity in vivo: survival of intraperitoneally infected mice; conditions: sc, 96 h; mice infected i.p. with Haemophilus influenzae; s.c. twice, 1 h and 3 h after infection; survival on 4th day; read-out: CD50 (dosage at which 50% of the animals survive)
Procedure: (§1) Groups of 5 mice are infected intraperitoneally with an aqueous suspension of various pathogens. The test substance in physiological sodium chloride solution is administered subcutaneously twice, i.e. 1 hour and 3 hours after the infection. The number of surviving animals is determined on the 4th day. Various dosages are administered and that dosage at which 50% of the experimental animals survive (CD50, mg/kg) is determined by interpolation.

Streptococcus pyogenes [1] = assay: as above; conditions: sc, 96 h; mice infected i.p. with Streptococcus pyogenes; s.c. twice, 1 h and 3 h after infection; survival on 4th day; read-out: CD50 (dosage at which 50% of the animals survive)
Procedure: as §1

Serratia marcescens [2] = assay: as above; conditions: sc, 96 h, 1 h and 3 h after infection, survival on 4th day, read-out: CD50 (dosage at which 50% of the animals survive)
Procedure: as §1

Escherichia coli [3] = assay: as above; conditions: sc, 96 h; mice infected i.p. with Escherichia coli; s.c. twice, 1 h and 3 h after infection; survival on 4th day; read-out: CD50 (dosage at which 50% of the animals survive)
Procedure: as §1

Enterobacter cloacae [4] = assay: as above; conditions: sc, 96 h; mice infected i.p. with Enterobacter cloacae; s.c. twice, 1 h and 3 h after infection; survival on 4th day; read-out: CD50 (dosage at which 50% of the animals survive)
Procedure: as §1

Toxicity, LD50 = conditions: in vivo
Proteus inconstans = assay: Activity in vitro: minimum inhibitory concentration; assay type: cell-based; conditions: Providencia alcalifaciens
Staphylococcus aureus = assay: as above; assay type: cell-based
Staphylococcus epidermis = assay: as above; assay type: cell-based
Proteus mirabilis = assay: as above; assay type: cell-based
Pseudomonas aeruginosa [5] = assay: Activity in vivo: survival of intraperitoneally infected mice; conditions: sc, 96 h; mice infected i.p. with Pseudomonas aeruginosa; s.c. three times, 1 h, 3 h and 5 h after infection; survival on 4th day; read-out: CD50 (dosage at which 50% of the animals survive)
Procedure: as §1
*Administered subcutaneously three times: 1 hour, 3 hours and 5 hours

Citrobacter freundii = assay: Activity in vitro: minimum inhibitory concentration; assay type: cell-based
Escherichia coli [6] = assay: as above; assay type: cell-based
Enterobacter aerogenes = assay: as above; assay type: cell-based; conditions: Klebsiella aerogenes
Serratia marcescens [7] = assay: as above; assay type: cell-based
Klebsiella pseumoniae = assay: as above; assay type: cell-based
Proteus rettgeri = assay: as above; assay type: cell-based; conditions: Providencia rettgeri
Streptococcus faecalis = assay: as above; assay type: cell-based; conditions: Enterococcus faecalis
Streptococcus pyogenes [8] = assay: as above; assay type: cell-based
Pseudomonas aeruginosa [9] = assay: as above; assay type: cell-based
Streptococcus viridans = assay: as above; assay type: cell-based
Enterobacter cloacae [10] = assay: as above; assay type: cell-based
[11] = mice infected i.p. with Serratia marcescens strain 1, s.c. twice
[12] = Enterobacter aerogenes strain 1
[13] = Enterobacter aerogenes strain 2
[14] = Streptococcus faecalis strain 1
[15] = Streptococcus faecalis strain 2
[16] = Streptococcus pyogenes strain 1, read-out: Minimum inhibitory concentration
[17] = Pseudomonas aeruginosa strain 1
[18] = Pseudomonas aeruginosa strain 2
[19] = Pseudomonas aeruginosa strain 3

CO/N=C(\C(=O)N[C@@H]1C(=O)N2C(C(=O)O)=C(C)CS[C@H]12)c1c[se]c(N)n1 [Product F, (6R, 7R)-7-[2-(2-amino-4-selenazolyl)-2-[(Z)-methoxyimino]-acetamido]-3-methyl-3-oxo-5-thia-1-azabicyclo[4.2.0]oct-2-ene-2-carboxylic acid sodium salt]
MIC (Streptococcus pneumoniae): 12.5 µg/mL | MIC (Proteus morganii): 50 µg/mL | ED50 (Haemophilus influenzae): 4 mg/kg | ED50 (Streptococcus pyogenes [1]): < 0.05 mg/kg | ED50 (Serratia marcescens [2]; [11]): 0.59 mg/kg | ED50 (Serratia marcescens [2]; mice infected i.p. with Serratia marcescens strain 2, s.c. twice): 5.1 mg/kg | ED50 (Escherichia coli [3]): 0.06 mg/kg | ED50 (Enterobacter cloacae [4]): > 25 mg/kg | LD50 (Toxicity, LD50; po): > 5000 mg/kg | LD50 (Toxicity, LD50; sc): > 4000 mg/kg | MIC (Proteus inconstans): ≤ 0.025 µg/mL | MIC (Staphylococcus aureus; Staphylococcus aureus strain 1): 50 µg/mL | MIC (Staphylococcus aureus; Staphylococcus aureus strain 2): 100 µg/mL | MIC (Staphylococcus aureus; Staphylococcus aureus strain 3): 50 µg/mL | MIC (Staphylococcus aureus; Staphylococcus aureus strain 4): 100 µg/mL | MIC (Staphylococcus epidermis): 100 µg/mL | MIC (Proteus mirabilis; Proteus mirabilis strain 3): 0.1 µg/mL | MIC (Proteus mirabilis; Proteus mirabilis strain 4): 0.8 µg/mL | MIC (Proteus mirabilis; Proteus mirabilis strain 5): 0.4 µg/mL | ED50 (Pseudomonas aeruginosa [5]): > 200 mg/kg | MIC (Citrobacter freundii; Citrobacter freundii strain 1): 200 µg/mL | MIC (Citrobacter freundii; Citrobacter freundii strain 2): 1.6 µg/mL | MIC (Escherichia coli [6]; Escherichia coli strain 1): 0.8 µg/mL | MIC (Escherichia coli [6]; Escherichia coli strain 2): 0.05 µg/mL | MIC (Escherichia coli [6]; Escherichia coli strain 3): 12.5 µg/mL | MIC (Escherichia coli [6]; Escherichia coli strain 4): 100 µg/mL | MIC (Escherichia coli [6]; Escherichia coli strain 5): 3.1 µg/mL | MIC (Enterobacter aerogenes; [12]): 0.2 µg/mL | MIC (Enterobacter aerogenes; [13]): 0.2 µg/mL | MIC (Serratia marcescens [7]; Serratia marcescens strain 1): 3.1 µg/mL | MIC (Serratia marcescens [7]; Serratia marcescens strain 2): 6.3 µg/mL | MIC (Serratia marcescens [7]; Serratia marcescens strain 3): 0.4 µg/mL | MIC (Klebsiella pseumoniae; Klebsiella pseumoniae strain 1): 0.2 µg/mL | MIC (Klebsiella pseumoniae; Klebsiella pseumoniae strain 2): 0.05 µg/mL | MIC (Klebsiella pseumoniae; Klebsiella pseumoniae strain 3): 0.05 µg/mL | MIC (Proteus rettgeri): 0.1 µg/mL | MIC (Streptococcus faecalis; [14]): > 200 µg/mL | MIC (Streptococcus faecalis; [15]): > 200 µg/mL | MIC (Streptococcus pyogenes [8]; [16]): 3.1 µg/mL | MIC (Streptococcus pyogenes [8]; Streptococcus pyogenes strain 2, read-out: Minimum inhibitory concentration): 0.05 µg/mL | MIC (Pseudomonas aeruginosa [9]; [17]): > 200 µg/mL | MIC (Pseudomonas aeruginosa [9]; [18]): > 200 µg/mL | MIC (Pseudomonas aeruginosa [9]; [19]): 200 µg/mL | MIC (Streptococcus viridans): 12.5 µg/mL | MIC (Enterobacter cloacae [10]; Enterobacter cloacae strain 1): > 200 µg/mL | MIC (Enterobacter cloacae [10]; Enterobacter cloacae strain 2): 25 µg/mL | MIC (Enterobacter cloacae [10]; Enterobacter cloacae strain 3): > 200 µg/mL

CO/N=C(\C(=O)N[C@@H]1C(=O)N2C(C(=O)[O-])=C(CSc3n[nH]c(=O)c(=O)n3C)CS[C@H]12)c1c[se]c(N)n1.[Na+] [Product G, (6R, 7R)-7-[2-(2-amino-4-selenazolyl)-2-[(Z)-methoxyimino]-acetamido]-8-oxo-3-[[(1,4,5,6-tetrahydro-4-methyl-5,6-dioxo-as-triazin-3-yl)thio]methyl]-5-thia-1-azabicyclo[4.2.0]oct-2-ene-2-carboxylic acid sodium salt]
MIC (Streptococcus pneumoniae): 0.1 µg/mL | MIC (Proteus morganii): 0.05 µg/mL | ED50 (Haemophilus influenzae): 0.25 mg/kg | ED50 (Streptococcus pyogenes [1]): 0.02 mg/kg | ED50 (Serratia marcescens [2]; [11]): 0.2 mg/kg | ED50 (Escherichia coli [3]): < 0.003 mg/kg | ED50 (Enterobacter cloacae [4]): 9.2 mg/kg | LD50 (Toxicity, LD50; po): > 5000 mg/kg | LD50 (Toxicity, LD50; sc): > 4000 mg/kg | MIC (Proteus inconstans): 0.006 µg/mL | MIC (Staphylococcus aureus; Staphylococcus aureus strain 1): 0.4 µg/mL | MIC (Staphylococcus aureus; Staphylococcus aureus strain 2): 1.6 µg/mL | MIC (Staphylococcus aureus; Staphylococcus aureus strain 3): 0.8 µg/mL | MIC (Staphylococcus aureus; Staphylococcus aureus strain 4): 0.8 µg/mL | MIC (Staphylococcus epidermis): 0.8 µg/mL | MIC (Proteus mirabilis; Proteus mirabilis strain 3): 0.4 µg/mL | MIC (Proteus mirabilis; Proteus mirabilis strain 4): 0.025 µg/mL | MIC (Proteus mirabilis; Proteus mirabilis strain 5): 0.025 µg/mL | ED50 (Pseudomonas aeruginosa [5]): > 200 mg/kg | MIC (Citrobacter freundii; Citrobacter freundii strain 1): 1.6 µg/mL | MIC (Citrobacter freundii; Citrobacter freundii strain 2): 0.1 µg/mL | MIC (Escherichia coli [6]; Escherichia coli strain 1): 0.05 µg/mL | MIC (Escherichia coli [6]; Escherichia coli strain 2): 0.012 µg/mL | MIC (Escherichia coli [6]; Escherichia coli strain 3): 0.2 µg/mL | MIC (Escherichia coli [6]; Escherichia coli strain 4): 0.2 µg/mL | MIC (Escherichia coli [6]; Escherichia coli strain 5): 0.2 µg/mL | MIC (Enterobacter aerogenes; [12]): 0.1 µg/mL | MIC (Enterobacter aerogenes; [13]): 0.1 µg/mL | MIC (Serratia marcescens [7]; Serratia marcescens strain 1): 0.2 µg/mL | MIC (Serratia marcescens [7]; Serratia marcescens strain 2): 0.4 µg/mL | MIC (Serratia marcescens [7]; Serratia marcescens strain 3): 0.1 µg/mL | MIC (Klebsiella pseumoniae; Klebsiella pseumoniae strain 1): 0.1 µg/mL | MIC (Klebsiella pseumoniae; Klebsiella pseumoniae strain 2): 0.025 µg/mL | MIC (Klebsiella pseumoniae; Klebsiella pseumoniae strain 3): 0.05 µg/mL | MIC (Proteus rettgeri): 0.05 µg/mL | MIC (Streptococcus faecalis; [14]): 25 µg/mL | MIC (Streptococcus faecalis; [15]): 50 µg/mL | MIC (Streptococcus pyogenes [8]; [16]): 0.05 µg/mL | MIC (Pseudomonas aeruginosa [9]; [17]): 50 µg/mL | MIC (Pseudomonas aeruginosa [9]; [18]): 50 µg/mL | MIC (Pseudomonas aeruginosa [9]; [19]): 25 µg/mL | MIC (Streptococcus viridans): 0.8 µg/mL | MIC (Enterobacter cloacae [10]; Enterobacter cloacae strain 1): > 100 µg/mL | MIC (Enterobacter cloacae [10]; Enterobacter cloacae strain 2): 0.8 µg/mL | MIC (Enterobacter cloacae [10]; Enterobacter cloacae strain 3): 50 µg/mL
